Target: T1, Y71G mutant EAG1 channels (Mus musculus, UniProt Q60603, Y71G)
T1 construct: expressed in transfected cells; host or cells: Xenopus laevis oocytes injected with cRNA
T1 sequence (Q60603 1-989 Y71G): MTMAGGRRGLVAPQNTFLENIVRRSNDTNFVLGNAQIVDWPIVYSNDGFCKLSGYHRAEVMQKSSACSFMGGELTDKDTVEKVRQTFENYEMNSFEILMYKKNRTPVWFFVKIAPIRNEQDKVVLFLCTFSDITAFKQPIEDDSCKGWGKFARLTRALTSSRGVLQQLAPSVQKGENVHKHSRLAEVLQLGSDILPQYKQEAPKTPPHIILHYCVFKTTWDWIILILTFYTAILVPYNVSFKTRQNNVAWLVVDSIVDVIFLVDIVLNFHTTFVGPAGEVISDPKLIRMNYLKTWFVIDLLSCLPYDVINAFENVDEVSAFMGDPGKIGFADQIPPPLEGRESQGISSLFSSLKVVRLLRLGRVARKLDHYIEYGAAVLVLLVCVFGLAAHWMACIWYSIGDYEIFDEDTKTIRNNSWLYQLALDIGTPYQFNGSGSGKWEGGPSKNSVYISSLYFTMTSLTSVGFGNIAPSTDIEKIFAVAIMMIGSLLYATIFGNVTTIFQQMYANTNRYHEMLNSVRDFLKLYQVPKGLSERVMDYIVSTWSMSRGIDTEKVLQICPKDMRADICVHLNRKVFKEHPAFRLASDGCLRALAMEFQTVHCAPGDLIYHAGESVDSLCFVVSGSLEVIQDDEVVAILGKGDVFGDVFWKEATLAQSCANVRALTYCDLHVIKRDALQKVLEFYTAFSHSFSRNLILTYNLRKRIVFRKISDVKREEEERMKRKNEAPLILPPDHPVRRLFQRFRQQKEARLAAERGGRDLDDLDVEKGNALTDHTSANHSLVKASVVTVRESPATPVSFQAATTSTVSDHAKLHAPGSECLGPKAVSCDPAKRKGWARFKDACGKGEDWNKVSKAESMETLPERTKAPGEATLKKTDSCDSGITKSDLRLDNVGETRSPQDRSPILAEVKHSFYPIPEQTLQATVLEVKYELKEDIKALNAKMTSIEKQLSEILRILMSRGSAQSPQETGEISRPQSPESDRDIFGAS
Assay: TEVC recording, imipramine inhibition, Y71G mutant
Type: cell-based
Conditions: Y71G mutant EAG1 channel, +50 mV
Excerpt: The cDNA encoding wild-type (WT) mouse EAG1 channels in pGH19 vector was kindly provided by G. Robertson (University of Wisconsin-Madison, Madison, WI). The mutant ΔPAS EAG1 channel in pGH19 with the deletion of the PAS domain residues 2 to 130 was generated by Bio Basic Inc and verified by DNA sequencing (Genewiz). Mutant EAG1 channels with single amino acid substitutions were generated by Genewiz and verified by DNA sequencing. cRNA was transcribed using the T7 mMessage mMachine kit (Thermo Fisher Scientific). Defolliculated Xenopus laevis oocytes were purchased from Ecocyte Bioscience or Xenopus1 and injected with the cRNA using a Nanoinject II oocyte injector (Drummond).
For EAG1 current recordings, oocytes were placed into a handmade chamber containing a bath solution for the current recording. The currents were recorded using a TEVC technique with OC-725C amplifier (Warner Instruments) and pClamp11 software (Molecular Devices). The signals were digitized using Digidata 1550 (Molecular Devices). Patch pipettes were pulled from borosilicate glass and had resistances of 0.7 to 1.5 MΩ. The recording (bath) solution contained 96 mM NaCl, 4 mM KCl, 0.1 mM CaCl2, 1.8 mM MgCl2, and 5 mM HEPES, pH 7.5. The pipette solution contained 3 M KCl. […]

IC50: 26.7 ± 3.2 µM
Structure (SMILES): CN(C)CCCN1c2ccccc2CCc2ccccc21 [imipramine]

From paper PMC10687071 (The Journal of Biological Chemistry, 2023)
